Patent publication US20150024001A1, “MOLECULAR MIMIC MUCOSAL AIDS VACCINE” (priority 2011, published 2015)

Legend:
UAE-1 = conditions: cited from earlier work
gp140 = conditions: subcutaneous booster in monkeys first immunized with Hub-TGDK-UPA-CpGODN-gp140-Fetuin, after anti-gp140 titer had decreased (about one year and a half)
Source text: The resulting modified gene of SIVmac239 Env was transferred into simian Vero cells and a monomer and a trimer of SIVmac239 Env gp140 were constructed.

Row | Molecule | mode of inhibition of UAE-1 (UAE-1) | production of anti-gp140 antibodies after booster (gp140)
1 | NCCNC(=O)[C@H](CCCCNC(=O)[C@H](CCCCNC(=O)c1cc(O)c(O)c(O)c1)NC(=O)c1cc(O)c(O)c(O)c1)NC(=O)[C@H](CCCCNC(=O)c1cc(O)c(O)c(O)c1)NC(=O)c1cc(O)c(O)c(O)c1 [TGDK, N^2,N^6-bis[N^2,N^6-bis(3,4,5-trihydroxybenzoyl)-L-lysyl]-N-(2-aminoethyl)-L-lysine amide] | competitive inhibitor | 
2 | Fetuin |  | production of anti-gp140 antibodies was confirmed
